For this experiment, the target named is T1, E. coli CsgA (Escherichia coli, UniProt P28307).
T1 construct: made in house; host or cells: E. coli NEB 3016 slyD::kan, pET11d
Description: In vitro ThioflavinT assay of CsgA aggregation (CsgA ThT Assay). Format: biochemical. The method, boiled down:
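Purified C-terminal His-tagged CsgA, monomerised by desalting and 30-kDa filtration, at 2-20 μM with 20-40 μM ThT in 50 mM potassium phosphate pH 7.3, 1% DMSO, compounds 3.125-200 uM; room temperature, fluorescence (ex 438/em 495 nm) read every 15 min. Background-subtracted signal expressed as percent inhibition versus vehicle at 6-6.5 or 8-9 h, or as percent control AUC.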

The mark [1] stands for this setting: read-out: CsgA ThT Assay (2 μM CsgA) % Control Bmax 25 μM, activity range, class symbol, CsgA 2 μM, white plates, compound 25 μM.
The mark [2] stands for this setting: read-out: CsgA ThT Assay (2 μM CsgA) % Control Bmax 25 μM, mean Bmax as percentage of DMSO control, CsgA 2 μM, white plates, compound 25 μM.
The mark [3] stands for this setting: read-out: CsgA ThT Assay (2 μM CsgA) % Control Bmax 100 μM, activity range, class symbol, CsgA 2 μM, white plates, compound 100 μM.
[4] abbreviates: read-out: CsgA ThT Assay (2 μM CsgA) % Control Bmax 100 μM, mean Bmax as percentage of DMSO control, CsgA 2 μM, white plates, compound 100 μM.
[5] abbreviates: read-out: CsgA ThT Assay (10 μM CsgA) % Control AUC at 1005 minutes, 25 μM (activity range), CsgA 10 μM, black plates, compound 25 μM, 1005 minutes, class symbol.
Where [6] appears, read: read-out: CsgA ThT Assay (10 μM CsgA) % Control AUC at 1005 minutes, 25 μM, mean AUC as % of DMSO control, CsgA 10 μM, black plates, compound 25 μM, 1005 minutes.
Setting [7] is: read-out: CsgA ThT Assay (10 μM CsgA) % Control AUC at 1005 minutes, 100 μM (activity range), CsgA 10 μM, black plates, compound 100 μM, 1005 minutes, class symbol.
The mark [8] stands for this setting: read-out: CsgA ThT Assay (10 μM CsgA) % Control AUC at 1005 minutes, 100 μM, mean AUC as % of DMSO control, CsgA 10 μM, black plates, compound 100 μM, 1005 minutes.

These results are taken from patent US20230131899A1, “INHIBITORS OF MICROBIALLY INDUCED AMYLOID” (Axial Therapeutics, Inc., priority 2020, published 2023).

Molecules are shown by their SMILES. Read-outs that look alike come from different tables or passages of the source. A value given as a limit tells only on which side of the number the result lay.

T1 sequence (P28307 23-151): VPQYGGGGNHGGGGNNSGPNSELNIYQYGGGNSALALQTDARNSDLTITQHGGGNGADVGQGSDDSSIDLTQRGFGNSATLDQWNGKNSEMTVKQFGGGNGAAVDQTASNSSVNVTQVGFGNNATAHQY

`CCNC(=O)c1c(Cc2cccc3ccccc23)c(-c2cccc(C(F)(F)F)c2)c2n(c1=O)C(C(=O)O)CN(C)S2(=O)=O` (stereo not shown) [Compound 156, 7-(ethylcarbamoyl)-2-methyl-8-(naphthalen-1-ylmethyl)-6-oxo-9-(3-(trifluoromethyl)phenyl)-3,4-dihydro-2H,6H-pyrido[1,2-e][1,2,5] thiadiazine-4-carboxylic acid 1,1-dioxide]: the remaining activity at 25 µM is, setting by setting: under setting [1], > 60%; under setting [2], 80%. The remaining activity at 100 µM was > 60% under setting [3] and 90% under setting [4].
As to `O=C(O)C1CN(Cc2ccc(CO)cc2)c2c(-c3cccc(C(F)(F)F)c3)c(Cc3cccc4ccccc34)c(Cl)c(=O)n21` (stereo not shown) [Compound 170, 6-chloro-1-(4-(hydroxymethyl)benzyl)-7-(naphthalen-1-ylmethyl)-5-oxo-8-(3-(trifluoromethyl)phenyl)-1,2,3,5-tetrahydroimidazo[1,2-a]pyridine-3-carboxylic acid], the remaining activity at 25 µM under setting [1] is > 60% and the remaining activity at 25 µM under setting [2] was found to be 62%. Moreover, the remaining activity at 100 µM is 31 to 60% under setting [3] and 38% under setting [4].
The corresponding values for `CC(C)(C)c1ccc(Cc2c(-c3cccc(C(F)(F)F)c3)c3n(c(=O)c2Cl)C(C(=O)O)CN3Cc2ccccc2)cc1` (stereo not shown) [Compound 216, 1-benzyl-7-(4-(tert-butyl)benzyl)-6-chloro-5-oxo-8-(3-(trifluoromethyl)phenyl)-1,2,3,5-tetrahydroimidazo[1,2-a]pyridine-3-carboxylic acid] are > 60%, 95%, 31 to 60% and 55%.
In the case of `O=C(O)C1CN(Cc2cccc(O)c2)c2c(-c3cccc(C(F)(F)F)c3)c(Cc3cccc4ccccc34)c(Cl)c(=O)n21` (stereo not shown) [Compound 196, 6-chloro-1-(3-hydroxybenzyl)-7-(naphthalen-1-ylmethyl)-5-oxo-8-(3-(trifluoromethyl)phenyl)-1,2,3,5-tetrahydroimidazo[1,2-a]pyridine-3-carboxylic acid], the remaining activity at 25 µM by setting is: under setting [1], > 60%; under setting [2], 67%.
Turning to `Nc1c(Cc2cccc3ccccc23)c(-c2cccc(C(F)(F)F)c2)c2n(c1=O)C(C(=O)O)CS2` (single isomer, unassigned) [Compound 020b, 6-amino-7-(naphthalen-1-ylmethyl)-5-oxo-8-(3-(trifluoromethyl)phenyl)-2,3-dihydro-5H-thiazolo[3,2-a]pyridine-3-carboxylic acid], where the note is “CsgA 10 μM, black plates, compound 25 μM, 1005 minutes, class symbol”, the “CsgA ThT Assay (10 μM CsgA) % Control AUC at 1005 minutes, 25 μM (activity range)” value is “(+++) (% control AUC of 11 to 31%)”. Under “CsgA 10 μM, black plates, compound 100 μM, 1005 minutes, class symbol”, the “CsgA ThT Assay (10 μM CsgA) % Control AUC at 1005 minutes, 100 μM (activity range)” value is listed as “(+++) (% control AUC of 11 to 31%)”. Where the note is “mean AUC as % of DMSO control, CsgA 10 μM, black plates, compound 25 μM, 1005 minutes”, the “CsgA ThT Assay (10 μM CsgA) % Control AUC at 1005 minutes, 25 μM” value turned out to be 26%. The “CsgA ThT Assay (10 μM CsgA) % Control AUC at 1005 minutes, 100 μM” value (mean AUC as % of DMSO control, CsgA 10 μM, black plates, compound 100 μM, 1005 minutes) is reported as 16%.
As to `CCCCN1CC(C(=O)O)n2c(c(-c3cccc(C(F)(F)F)c3)c(Cc3cccc4ccccc34)c(C(N)=O)c2=O)S1(=O)=O` (stereo not shown) [Compound 177, 2-butyl-7-carbamoyl-8-(naphthalen-1-ylmethyl)-6-oxo-9-(3-(trifluoromethyl)phenyl)-3,4-dihydro-2H,6H-pyrido[1,2-e][1,2,5]thiadiazine-4-carboxylic acid 1,1-dioxide], the remaining activity at 25 µM runs as follows: under setting [1], 31 to 60%; under setting [2], 32%. Moreover, the remaining activity at 100 µM under setting [3] was 11 to 31% and the remaining activity at 100 µM under setting [4] worked out at 21%.
On to `CC(C)N1CC(C(=O)O)n2c1c(-c1cccc(C(F)(F)F)c1)c(Cc1cccc3ccccc13)c(Cl)c2=O` (stereo not shown) [Compound 179, 6-chloro-1-isopropyl-7-(naphthalen-1-ylmethyl)-5-oxo-8-(3-(trifluoromethyl)phenyl)-1,2,3,5-tetrahydroimidazo[1,2-a]pyridine-3-carboxylic acid], for which the remaining activity at 25 µM by setting is: under setting [1], > 60%; under setting [2], 65%. Besides, the remaining activity at 100 µM was 31 to 60% under setting [3] and 48% under setting [4].
Consider `CCCN1CC(C(=O)O)n2c(c(-c3cccc(C(F)(F)F)c3)c(Cc3cccc4ccccc34)c(C(N)=O)c2=O)S1(=O)=O` (stereo not shown) [Compound 172, 7-carbamoyl-8-(naphthalen-1-ylmethyl)-6-oxo-2-propyl-9-(3-(trifluoromethyl)phenyl)-3,4-dihydro-2H,6H-pyrido[1,2-e][1,2,5]thiadiazine-4-carboxylic acid 1,1-dioxide], for which the remaining activity at 25 µM is 11 to 31% under setting [1] and 26% under setting [2]. For the same compound, the remaining activity at 100 µM by setting is: under setting [3], 11 to 31%; under setting [4], 17%.
For the compound `N#Cc1cccc(CN2CC(C(=O)O)n3c2c(-c2cccc(C(F)(F)F)c2)c(Cc2cccc4ccccc24)c(Cl)c3=O)c1` (stereo not shown) [Compound 168, 6-chloro-1-(3-cyanobenzyl)-7-(naphthalen-1-ylmethyl)-5-oxo-8-(3-(trifluoromethyl)phenyl)-1,2,3,5-tetrahydroimidazo[1,2-a]pyridine-3-carboxylic acid], the remaining activity at 25 µM is, setting by setting: under setting [1], > 60%; under setting [2], 76%. In addition, the remaining activity at 100 µM under setting [3] is 31 to 60% and the remaining activity at 100 µM under setting [4] turned out to be 47%.
With `Cn1c(=O)c2c(nc(CCCCCCCN3CC(C(=O)O)n4c(c(-c5cccc(C(F)(F)F)c5)c(Cc5cccc6ccccc56)cc4=O)S3(=O)=O)n2C)n(C)c1=O` (stereo not shown) [Compound 047, 8-(naphthalen-1-ylmethyl)-6-oxo-9-(3-(trifluoromethyl)phenyl)-2-(7-(1,3,7-trimethyl-2,6-dioxo-2,3,6,7-tetrahydro-1H-purin-8-yl)heptyl)-3,4-dihydro-2H,6H-pyrido[1,2-e][1,2,5]thiadiazine-4-carboxylic acid 1,1-dioxide], the remaining activity at 25 µM by setting is: under setting [5], 31 to 60%; under setting [6], 55%. For the same compound, the remaining activity at 100 µM under setting [7] is > 60% and the remaining activity at 100 µM under setting [8] turned out to be 71%.
`O=C(O)C1CN(Cc2ccccc2)c2c(-c3cccc(C(F)(F)F)c3)c(Cc3cccc4ccccc34)cc(=O)n21` (stereo not shown) [Compound 187, 1-benzyl-7-(naphthalen-1-ylmethyl)-5-oxo-8-(3-(trifluoromethyl)phenyl)-1,2,3,5-tetrahydroimidazo[1,2-a]pyridine-3-carboxylic acid]: the remaining activity at 25 µM runs as follows: under setting [1], > 60%; under setting [2], 69%. Also, the remaining activity at 100 µM under setting [3] was > 60% and the remaining activity at 100 µM under setting [4] was found to be 74%.
As for `Nc1c(Cc2ccc(N)c3ccccc23)c(-c2cccc(C(F)(F)F)c2)c2n(c1=O)C(C(=O)O)CNS2(=O)=O` (stereo not shown) [Compound 041], the remaining activity at 25 µM under setting [5] is > 60% and the remaining activity at 25 µM under setting [6] was 75%. Besides, the remaining activity at 100 µM reads like this: under setting [7], 11 to 31%; under setting [8], 27%.
For `CN1CC(C(=O)O)n2c(c(-c3cccc(C(F)(F)F)c3)c(Cc3cccc4ccccc34)c(NC3CCCC3)c2=O)S1(=O)=O` (stereo not shown) [Compound 070, 7-(cyclopentylamino)-2-methyl-8-(naphthalen-1-ylmethyl)-6-oxo-9-(3-(trifluoromethyl)phenyl)-3,4-dihydro-2H,6H-pyrido[1,2-e][1,2,5]thiadiazine-4-carboxylic acid 1,1-dioxide], the remaining activity at 25 µM runs as follows: under setting [5], 11 to 31%; under setting [6], 17%. The remaining activity at 100 µM is, setting by setting: under setting [7], 11 to 31%; under setting [8], 29%.
Consider `CCCN1CC(C(=O)O)n2c1c(-c1cccc(C(F)(F)F)c1)c(Cc1cccc3ccccc13)c(Cl)c2=O` (stereo not shown) [Compound 162, 6-chloro-7-(naphthalen-1-ylmethyl)-5-oxo-1-propyl-8-(3-(trifluoromethyl)phenyl)-1,2,3,5-tetrahydroimidazo[1,2-a]pyridine-3-carboxylic acid], for which the remaining activity at 25 µM reads like this: under setting [1], 31 to 60%; under setting [2], 34%. In addition, the remaining activity at 100 µM under setting [3] lay within 31 to 60% and the remaining activity at 100 µM under setting [4] amounted to 49%.
For the compound `O=C(O)C1CN(CCCO)S(=O)(=O)c2c(-c3cccc(C(F)(F)F)c3)c(Cc3cccc4ccccc34)cc(=O)n21` (stereo not shown) [Compound 056, 2-(3-hydroxypropyl)-8-(naphthalen-1-ylmethyl)-6-oxo-9-(3-(trifluoromethyl)phenyl)-3,4-dihydro-2H,6H-pyrido[1,2-e][1,2,5]thiadiazine-4-carboxylic acid 1,1-dioxide], the remaining activity at 25 µM is 31 to 60% under setting [5] and 38% under setting [6]. In addition, the remaining activity at 100 µM under setting [7] was in the range of 31 to 60% and the remaining activity at 100 µM under setting [8] was 34%.
